One data set concerns Caco-2 cells. Particulars: cited from earlier work.
Data set [1] in a line: Caco-2 cell permeability assay (published Pm values). It is filed as in vitro ADME. Particulars: human. Here is the method:
Drug permeability assays using Caco-2 cells are currently widely used. Caco-2 cells are human colon adenocarcinoma cells that differentiate in culture to resemble intestinal epithelial cells.
The inventors used 21 reference compounds having a single positive charge at the pH at which the chromatography was performed, each having a published known permeability value, Pm, as determined by a Caco-2 cell assay by the various methods set out in references 1-7, below. The conditions used to determine the Caco-2 Pm values were generally similar in the cited references, although certain conditions varied between assays. Generally, the assays were performed at pH 7.4, with the exception of procaine and sumatriptan, for which the pH was 5.5 and 6.5, respectively. Therefore, for the experiments set out below, the pH of the mobile phase was 7.4 for all compounds except procaine (pH 5.5) and sumatriptan (6.5).

Data set [2] is described as follows: Immobilized artificial membrane (IAM) HPLC capacity factor. It is filed as physicochemical. Particulars: 37° C.; for k′IAM (capacity factor): 1.0 ml/min, from average of 3 runs. Here is the method:
Sample Preparation: Between 3 and 10 mg of each sample was dissolved in a solution of 10% methanol, 90% water in preparation for injection onto the column.
HPLC Conditions: A Regis IAM.PC.DD2 column (30 mm×4.6 mm, 12 μm) was used, run at 37° C. at a flow rate of 1.0 ml/min. […] Elution of reference compounds was detected by ultraviolet absorbance at 210 nm.
Calculation of k′: Sodium nitrate was injected onto the column and the elution time was measured in order to determine the time for the void volume, t0, to pass through the column. Each reference compound was then injected onto the column and retention time, tR was recorded by detecting elution by measuring UV absorbance at 210 nm. The capacity factor, k′, was calculated by determining the adjusted retention time and dividing by the time for void volume elution, according to the formula k′=(tR−t0)/t0.
Each reference compound was tested three times and an average retention time was used.

[3] abbreviates: Caco 2 donor pH 7.4, log of Pm in 10^−6 cm/s, read-out: Pm (converted).
Where [4] appears, read: mobile phase 85% 0.05 M ammonium phosphate pH 7.4 / 15% acetonitrile.
Where [5] appears, read: mobile phase buffer pH 7.4 / 15% acetonitrile.
Setting [6] is: mobile phase buffer pH 5.5 / 15% acetonitrile.
Where [7] appears, read: mobile phase buffer pH 6.5 / 15% acetonitrile.

Molecules are shown by their SMILES. Where two headings read alike, the source gives them in different places.

Turning to `C=CCc1ccccc1OCC(O)CNC(C)C` (stereo not shown) [Alprenolol], in the data set with Caco-2 cells (Caco 2 donor pH 7.4), the Pm was 25.3 10^−6 cm/s. In the data set on Caco-2 cells (published Caco-2 assay, pH 7.4), the “Pm of Caco-2 Assay” value was 25.3 +/− 10^−6 cm/s. The Papp in data set [1] (setting [3]) is 25.3 ×10⁻⁶ cm/s. In addition, the “k′IAM (capacity factor)” value in data set [2] (setting [4]) was 19.190. For the same compound, in data set [2] (setting [5]), the “logk′IAM” value worked out at 1.283.
As to `Clc1cccc(Cl)c1N=C1NCCN1` [Clonidine], the Pm with Caco-2 cells (Caco 2 donor pH 7.4) is listed as 21.8 10^−6 cm/s. In the data set on Caco-2 cells (published Caco-2 assay, pH 7.4), the “Pm of Caco-2 Assay” value was 21.8 +/− 10^−6 cm/s. The Papp in data set [1] (Caco-2, pH 7.4) was 21.8 ×10⁻⁶ cm/s. Moreover, the “k′IAM (capacity factor)” value in data set [2] (setting [4]) is listed as 3.841. The “logk′IAM” value in data set [2] (setting [5]) is recorded as 0.584.
For `COc1ccc([C@@H]2Sc3ccccc3N(CCN(C)C)C(=O)[C@@H]2OC(C)=O)cc1` [Diltiazem], in data set [2] (setting [4]), the “k′IAM (capacity factor)” value came out at 24.145. Further, in data set [2] (setting [5]), the “logk′IAM” value worked out at 1.383.
On the same counts, the results for `CN(C)CCCN1c2ccccc2CCc2ccccc21` [Imipramine] are 91.053 and 1.959.
On the same counts, the results for `CC(CCc1ccccc1)NCC(O)c1ccc(O)c(C(N)=O)c1` (stereo not shown) [Labetalol] are 12.940 and 1.112.
For `COCCc1ccc(OCC(O)CNC(C)C)cc1` (stereo not shown) [Metoprolol], the Pm with Caco-2 cells (Caco 2 donor pH 7.4) is on record as 23.7 10^−6 cm/s. In the data set with Caco-2 cells (published Caco-2 assay, pH 7.4), the “Pm of Caco-2 Assay” value is given as 23.7 +/− 10^−6 cm/s. The Papp in data set [1] (Caco-2, pH 7.4) is 23.7 ×10⁻⁶ cm/s. For the same compound, the “k′IAM (capacity factor)” value in data set [2] (setting [4]) amounted to 3.600. Moreover, in data set [2] (setting [5]), the “logk′IAM” value worked out at 0.556.
In the case of `CC(C)(C)NCC(O)COc1cccc2c1CC(O)C(O)C2` (stereo not shown) [Nadolol], the Pm in the data set on Caco-2 cells (Caco 2 donor pH 7.4) was 3.88 10^−6 cm/s. In addition, in the data set on Caco-2 cells (published Caco-2 assay, pH 7.4), the “Pm of Caco-2 Assay” value was 3.88 +/− 10^−6 cm/s. The Papp in data set [1] (setting [3]) was 3.88 ×10⁻⁶ cm/s. Further, the “k′IAM (capacity factor)” value in data set [2] (setting [4]) is 1.717. Further, in data set [2] (setting [5]), the “logk′IAM” value came to 0.235.
Consider `CC(C)NCC(O)COc1cccc2[nH]ccc12` (stereo not shown) [Pindolol], for which, in the data set with Caco-2 cells (Caco 2 donor pH 7.4), the Pm was 16.7 10^−6 cm/s. The “Pm of Caco-2 Assay” value in the data set with Caco-2 cells (published Caco-2 assay, pH 7.4) is 16.7 +/− 10^−6 cm/s. The compound also showed a Papp in data set [1] (Caco-2, pH 7.4) of 16.7 ×10⁻⁶ cm/s. The “k′IAM (capacity factor)” value in data set [2] (setting [4]) is recorded as 4.712. The “logk′IAM” value in data set [2] (setting [5]) came to 0.673.
Regarding `CCN(CC)CCOC(=O)c1ccc(N)cc1` [Procaine], the Pm with Caco-2 cells (Caco 2 donor pH 5.5) is given as 1.94 10^−6 cm/s. In addition, the “Pm of Caco-2 Assay” value with Caco-2 cells (published Caco-2 assay, pH 5.5) was 1.94 +/− 10^−6 cm/s. Also, the Papp in data set [1] (Caco 2 donor pH 5.5, log of Pm in 10^−6 cm/s, read-out: Pm (converted)) is 1.94 ×10⁻⁶ cm/s. Further, in data set [2] (setting [6]), the “logk′IAM” value was −0.368 and the “k′IAM (capacity factor)” value is 0.428.
`CC(C)NCC(O)COc1cccc2ccccc12` (stereo not shown) [Propranolol]: the Pm in the data set on Caco-2 cells (Caco 2 donor pH 7.4) is 32.5 10^−6 cm/s. The “Pm of Caco-2 Assay” value in the data set on Caco-2 cells (Caco-2, pH 7.4) was 1.94 +/− 10^−6 cm/s. Further, the Papp in data set [1] (Caco-2, pH 7.4) is 32.5 ×10⁻⁶ cm/s. Besides, in data set [2] (setting [4]), the “k′IAM (capacity factor)” value is 31.148. Besides, the “logk′IAM” value in data set [2] (setting [5]) turned out to be 1.493.
Take `CN/C(=C\[N+](=O)[O-])NCCSCc1ccc(CN(C)C)o1` [Ranitidine]: in the data set on Caco-2 cells (Caco 2 donor pH 7.4), the Pm is 0.49 10^−6 cm/s. In addition, the “Pm of Caco-2 Assay” value in the data set with Caco-2 cells (published Caco-2 assay, pH 7.4) is recorded as 0.49 +/− 10^−6 cm/s. Besides, in data set [1] (setting [3]), the Papp was 0.49 ×10⁻⁶ cm/s. Besides, the “k′IAM (capacity factor)” value in data set [2] (setting [4]) came to 1.232. In addition, the “logk′IAM” value in data set [2] (setting [5]) came to 0.091.
Take `CCN1CCCC1CNC(=O)c1cc(S(N)(=O)=O)ccc1OC` (stereo not shown) [Sulpiride]: in data set [2] (setting [4]), the “k′IAM (capacity factor)” value came out at 1.804. Further, in data set [2] (setting [5]), the “logk′IAM” value is on record as 0.256.
With `CNS(=O)(=O)Cc1ccc2[nH]cc(CCN(C)C)c2c1` [Sumatriptan], in the data set with Caco-2 cells (Caco 2 donor pH 6.5), the Pm is 3 10^−6 cm/s. Further, the “Pm of Caco-2 Assay” value with Caco-2 cells (published Caco-2 assay, pH 6.5) is listed as 3 10^−6 cm/s. The Papp in data set [1] (Caco 2 donor pH 6.5, log of Pm in 10^−6 cm/s, read-out: Pm (converted)) was 3 ×10⁻⁶ cm/s. In data set [2] (setting [7]), the “logk′IAM” value is reported as −0.077 and the “k′IAM (capacity factor)” value is recorded as 0.837.
For `CC(C)(C)NCC(O)c1cc(O)cc(O)c1` (stereo not shown) [Terbutaline], the Pm in the data set with Caco-2 cells (Caco 2 donor pH 7.4) was 1.4 10^−6 cm/s. Also, the “Pm of Caco-2 Assay” value with Caco-2 cells (published Caco-2 assay, pH 7.4) was 1.4 +/− 10^−6 cm/s. In addition, the Papp in data set [1] (setting [3]) is 1.4 ×10⁻⁶ cm/s. The “k′IAM (capacity factor)” value in data set [2] (setting [4]) turned out to be 1.276. For the same compound, in data set [2] (setting [5]), the “logk′IAM” value is reported as 0.106.

Source of the values: patent publication US20050014280A1, “In vitro method for determining drug permeability using immobilized artificial membrane chromatography” (priority 2003, published 2005).
